The results in this text go back to ChEMBL document CHEMBL1201862, “PubChem BioAssay data set” (2004).

Common to all, as to test: NCI anticancer screen, dose series, 48 h
Assay [1] has as its system 786-0.
The subject of assay [2] is ACHN.
In assay [3] the test system is CAKI-1.
Assay [4] relates to CCRF-CEM.
The test system of assay [5] is HCC 2998.
For assay [6], the system named is HOP-62.
For assay [7], the system named is HOP-92.
For assay [8], the system named is K562.
Assay [9] relates to KM12.
Assay [10] concerns LOX IMVI.
Assay [11] relates to MDA-MB-231.
Assay [12] deals with MDA-MB-435.
Assay [13] concerns MDA-N.
The subject of assay [14] is NCI-H522.
The subject of assay [15] is OVCAR-5.
Assay [16] has as its system OVCAR-8.
Assay [17] relates to SK-MEL-2.
The subject of assay [18] is SN12C.
In assay [19] the test system is TK-10.
In assay [20] the test system is RPMI-8226.

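Grown in 96-well plates, cells were treated for 48 hours with each compound at five concentrations. Insufficient inhibition: endpoint recorded as highest concentration tested. GI50 marks 50% less growth.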 Active and inactive are the calls of the source. Cut-off read from the data, not from the text of the source: active = GI50 up to about 1.1 µM and inactive = higher.

Consider `CCCCCCCCC/C=C1/CC(CO)(COC(=O)CC(C(C)C)C(C)C)OC1=O` (stereo not drawn), for which the GI50 in assay [1] was 1.35 µM (inactive); in assay [2], 3.17 µM (inactive); in assay [3], 4.18 µM (inactive); in assay [4], 5.35 µM (inactive); in assay [5], 2.39 µM (inactive); in assay [6], 1.12 µM (inactive). For the same molecule, the GI50 in [7] was 1.28 µM (inactive); in [8], 0.36 µM (active); in assay [9], 8.85 µM (inactive); in assay [10], 11.5 µM (inactive); in [11] it was 2.59 µM (inactive); in assay [12], 2.79 µM (inactive). Further, the GI50 in assay [13] is 0.21 µM (active); in assay [14], 10.4 µM (inactive); in assay [15], 12.1 µM (inactive); in assay [16], 16 µM (inactive); in assay [17] it was 15.1 µM (inactive); in assay [18] it was 2.42 µM (inactive). Also, in assay [19], the GI50 is 2.89 µM (inactive).

Regarding `O=C(O)c1ccccc1-c1ccccc1C(=O)Nc1ccc2c(c1)Cc1ccccc1-2`, the GI50 in assay [1] is 34.7 µM (inactive); in assay [2], 30.3 µM (inactive); in [3], 51.9 µM (inactive); in [5], 17.8 µM (inactive); in assay [6] it was 58.6 µM (inactive); in assay [7], 46.8 µM (inactive). In addition, the GI50 is 32.4 µM (inactive) in assay [9]; 22.5 µM (inactive) in assay [10]; 60.5 µM (inactive) in assay [11]; 41.9 µM (inactive) in [12]; 27.4 µM (inactive) in assay [13]; 21.3 µM (inactive) in assay [14]. For the same molecule, the GI50 in assay [15] is 21.9 µM (inactive); in [16] it was 43.6 µM (inactive); in [20] it was 23.4 µM (inactive); in [17], 22.6 µM (inactive); in assay [18] it was 29.3 µM (inactive); in [19] it was 45.1 µM (inactive).

With `C/C=C1/CN2CCC34c5ccccc5N5C(=O)C(C6CC78c9ccccc9N9C(=O)C=CC(C%10CC7N6C/C%10=C/C)C98)=CC(C1CC23)C54` (stereo not drawn), the GI50 in assay [1] is 4.67 µM (inactive); in [2] it was 7 µM (inactive); in assay [3] it was 8.71 µM (inactive); in assay [4] it was 0.501 µM (active); in assay [5] it was 5.9 µM (inactive); in assay [6], 8.59 µM (inactive). Moreover, the GI50 in [7] is 6.32 µM (inactive); in assay [8], 1.62 µM (inactive); in assay [9] it was 9.55 µM (inactive); in [10] it was 10.3 µM (inactive); in assay [11], 2.32 µM (inactive); in assay [12], 6.28 µM (inactive). The GI50 in assay [13] was 5.47 µM (inactive); in assay [14], 3.11 µM (inactive); in assay [15], 10.2 µM (inactive); in assay [16], 2.06 µM (inactive); in assay [17], 6.53 µM (inactive); in assay [18], 5.53 µM (inactive). In [19], the GI50 was 7.52 µM (inactive).

Take `CC(=O)OCC1OC(On2ccccc2=S)C(OC(C)=O)C(OC(C)=O)C1OC(C)=O` (stereo not drawn): the GI50 in assay [1] is > 100 µM (inactive); in assay [2] it was > 100 µM (inactive); in assay [3] it was > 100 µM (inactive); in assay [4], 0.785 µM (active); in assay [5], > 100 µM (inactive); in assay [6], > 100 µM (inactive). Also, the GI50 in [7], in assay [8], in assay [9], in [10], in [11] and in assay [12] was > 100 µM (inactive) in each case. In addition, the GI50 in [13] is > 100 µM (inactive); in assay [14], 49.7 µM (inactive); in [15] it was > 100 µM (inactive); in [16], > 100 µM (inactive); in assay [17] it was > 100 µM (inactive); in assay [18] it was > 100 µM (inactive). In assay [19], the GI50 is > 100 µM (inactive).

Regarding `O=C(Nc1nc(C23CC4CC(CC(C4)C2)C3)cs1)c1cc2ccccc2oc1=O`, the GI50 in [1], in assay [2], in [3], in assay [4], in [5] and in assay [6] was > 100 µM (inactive) in each case. Also, the GI50 in [7], in [8], in assay [9], in assay [10], in assay [11] and in [12] was > 100 µM (inactive) in each case. Further, the GI50 in assay [13], in assay [14], in [15], in assay [16], in assay [20] and in assay [18] was > 100 µM (inactive) in each case. In addition, in assay [19], the GI50 is > 100 µM (inactive).

Take `NC(=O)/C=C/NC(=O)/C=N\O`: the GI50 in assay [1], in assay [2], in assay [3], in assay [4], in assay [5] and in assay [6] was > 100 µM (inactive) each time. Also, the GI50 in assay [7], in assay [8], in assay [9], in assay [10], in assay [11] and in assay [12] was > 100 µM (inactive) each time. Further, the GI50 in assay [13], in [14], in [15], in [16], in [20] and in assay [18] was > 100 µM (inactive) each time.

`OC1(c2ccccc2)CSC2=Nc3ccccc3C3CCN1N23` (stereo not drawn): the GI50 was 18.7 µM (inactive) in assay [1]; 19 µM (inactive) in assay [2]; 21.1 µM (inactive) in assay [3]; 26.2 µM (inactive) in assay [4]; 26.9 µM (inactive) in assay [5]; 14.5 µM (inactive) in assay [6]. For the same molecule, the GI50 in assay [7] was 18.9 µM (inactive); in [8], 38.6 µM (inactive); in assay [9] it was 16.7 µM (inactive); in [10], 19 µM (inactive); in assay [11], 15.5 µM (inactive); in [12], 17 µM (inactive). In addition, the GI50 in assay [13] was 14.1 µM (inactive); in assay [14], 20 µM (inactive); in assay [15], 11.1 µM (inactive); in [16], 19.5 µM (inactive); in assay [17], 15.8 µM (inactive); in [18], 23.5 µM (inactive). Moreover, the GI50 in [19] is 22.3 µM (inactive).

On to `CN(C)c1cccc2c1C(=O)C=CC21c2ccc(N(C)C)c3c(N(C)C)ccc(c23)C(c2ccccc2)C1c1ccccc1` (stereo not drawn), for which the GI50 was 9.44 µM (inactive) in assay [1]; 13.1 µM (inactive) in [2]; 1.64 µM (inactive) in assay [3]; 4.86 µM (inactive) in assay [4]; 17.6 µM (inactive) in assay [5]; 17.6 µM (inactive) in assay [6]. For the same molecule, the GI50 is 8.73 µM (inactive) in [7]; 18.3 µM (inactive) in assay [8]; 14.3 µM (inactive) in assay [9]; 15.2 µM (inactive) in assay [10]; 8.75 µM (inactive) in [11]; 15 µM (inactive) in [12]. In addition, the GI50 in assay [13] was 16.4 µM (inactive); in assay [14] it was 21.3 µM (inactive); in [15], 28.1 µM (inactive); in assay [16], 13.5 µM (inactive); in [20] it was 15.9 µM (inactive); in assay [18], 10.8 µM (inactive). Besides, the GI50 in assay [19] was 12 µM (inactive).

Regarding `C[C@]12CC[C@H]3[C@@H](CC[C@]4(O)C[C@@H](O)CC[C@]34/C=N/O)[C@@]1(O)CC[C@@H]2C1=COC(=O)C1`, the GI50 in assay [1] is 0.102 µM (active); in assay [2], 0.0404 µM (active); in assay [3], 0.0363 µM (active); in [5], 0.251 µM (active); in assay [6], 0.102 µM (active); in assay [7] it was 0.2 µM (active). The GI50 in assay [8] is 0.12 µM (active); in assay [9], 0.318 µM (active); in assay [10], 0.136 µM (active); in assay [11], 0.589 µM (active); in assay [12], 0.257 µM (active); in assay [13] it was 0.191 µM (active). The GI50 in assay [14] is 0.0323 µM (active); in assay [15], 0.318 µM (active); in assay [16] it was 0.154 µM (active); in assay [20], 0.258 µM (active); in assay [17] it was 0.255 µM (active); in assay [18], 0.251 µM (active). Further, in [19], the GI50 is 0.0845 µM (active).

For `Cc1c([C@H](C)[C@@H]2NC[C@@H](C)C[C@H]2O)ccc2c1C[C@H]1[C@H]2CC=C2C[C@@H](O)CC[C@@]21C` [VERATRAMINE], the GI50 in assay [1] was 17 µM (inactive); in [2], 15 µM (inactive); in assay [3] it was 26.6 µM (inactive); in assay [4], 16.1 µM (inactive); in [5], 13.2 µM (inactive); in assay [6] it was 23.4 µM (inactive). Moreover, the GI50 in assay [7] is 2.07 µM (inactive); in assay [8] it was 12.1 µM (inactive); in assay [9], 14.5 µM (inactive); in assay [10] it was 11.6 µM (inactive); in assay [11], 16.4 µM (inactive); in [12], 12.9 µM (inactive). The GI50 in assay [13] was 15.7 µM (inactive); in assay [14] it was 13 µM (inactive); in assay [15] it was 17.8 µM (inactive); in [16], 21.9 µM (inactive); in assay [20] it was 3.29 µM (inactive); in assay [18], 20.4 µM (inactive). For the same molecule, the GI50 in assay [19] is 24.4 µM (inactive).
